{"source": "patent US8748452B2", "about": "“Indolizine derivative and use thereof for medical purposes” (Kissei Pharmaceutical Co., Ltd., priority 2009, dated 2014)"}
{"biological_target": "T1, Xanthine oxidase (from bovine milk, Sigma) (Bos taurus, UniProt P80457)", "T1 construct": "Xanthine oxidase (from bovine milk, Sigma); purchased Sigma; host or cells: bovine milk", "T1 sequence (P80457 whole entry)": "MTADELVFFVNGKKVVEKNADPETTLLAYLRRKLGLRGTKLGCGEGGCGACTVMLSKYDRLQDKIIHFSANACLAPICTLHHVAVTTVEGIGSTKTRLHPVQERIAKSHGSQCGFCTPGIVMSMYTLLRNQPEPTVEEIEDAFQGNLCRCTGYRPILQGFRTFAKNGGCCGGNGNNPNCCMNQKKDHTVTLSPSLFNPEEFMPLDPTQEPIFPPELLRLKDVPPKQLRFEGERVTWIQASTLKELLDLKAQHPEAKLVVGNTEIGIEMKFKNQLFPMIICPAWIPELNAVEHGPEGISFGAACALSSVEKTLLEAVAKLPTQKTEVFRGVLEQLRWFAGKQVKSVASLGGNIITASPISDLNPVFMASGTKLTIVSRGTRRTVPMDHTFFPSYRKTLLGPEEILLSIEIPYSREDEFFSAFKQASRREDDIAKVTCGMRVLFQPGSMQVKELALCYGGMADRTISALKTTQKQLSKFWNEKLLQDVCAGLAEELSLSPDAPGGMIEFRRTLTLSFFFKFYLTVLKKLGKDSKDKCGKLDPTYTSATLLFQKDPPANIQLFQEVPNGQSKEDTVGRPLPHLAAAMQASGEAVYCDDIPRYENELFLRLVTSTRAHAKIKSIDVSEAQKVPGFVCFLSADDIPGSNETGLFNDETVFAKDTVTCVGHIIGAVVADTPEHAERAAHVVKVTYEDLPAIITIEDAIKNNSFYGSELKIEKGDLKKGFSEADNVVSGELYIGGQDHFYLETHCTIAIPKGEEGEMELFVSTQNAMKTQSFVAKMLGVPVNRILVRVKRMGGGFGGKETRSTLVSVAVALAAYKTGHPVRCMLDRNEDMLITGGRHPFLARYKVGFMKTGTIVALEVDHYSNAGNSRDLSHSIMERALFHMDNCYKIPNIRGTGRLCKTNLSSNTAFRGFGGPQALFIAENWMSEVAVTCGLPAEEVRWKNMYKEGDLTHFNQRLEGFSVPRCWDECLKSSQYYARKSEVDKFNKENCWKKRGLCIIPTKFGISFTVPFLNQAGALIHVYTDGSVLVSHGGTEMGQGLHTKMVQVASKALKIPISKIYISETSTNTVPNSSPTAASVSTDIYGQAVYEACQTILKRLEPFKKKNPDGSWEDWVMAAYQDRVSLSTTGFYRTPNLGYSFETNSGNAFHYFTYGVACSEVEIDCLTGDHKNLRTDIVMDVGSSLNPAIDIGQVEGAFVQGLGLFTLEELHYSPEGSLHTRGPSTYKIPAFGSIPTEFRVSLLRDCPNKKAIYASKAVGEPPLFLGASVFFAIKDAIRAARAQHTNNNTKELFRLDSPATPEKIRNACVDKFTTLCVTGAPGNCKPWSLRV", "assay": "Xanthine oxidase inhibitory activity", "type": "biochemical", "settings": "xanthine oxidase from bovine milk 0.02 units/mL, xanthine 200 μM, 10 minutes at room temperature, absorbance at 290 nm", "experimental": "(1) Preparation of test compounds\nTest compounds were dissolved in DMSO (Wako pure chemical) at 40 mM concentration and then diluted to intended concentrations with phosphate-buffered saline (PBS).\n(2) Method for measurement\nXanthine oxidase (from bovine milk, Sigma) was prepared with phosphate-buffered saline (PBS) at 0.02 units/mL, and then the solution was added to 96 well plates at 50 μL/well. In addition, test compounds diluted with PBS were added at 50 μL/well. Xanthine (Wako pure chemical) at 200 μM prepared with PBS was added at 100 μL/well, and the mixture was reacted for 10 minutes at room temperature. Absorbance at 290 nm was measured using a microplate reader SpectraMax Plus 384 (Molecular device). The absorbance under a condition without xanthine is 0%, and control without test compounds is 100%. Fifty % inhibitory concentration (IC50) of test compounds was calculated (Table 17). Ex. No. in the table indicates Example number.", "units": {"IC50": "nM"}}
{"smiles": "COc1ccn2c(-c3ccc(C(=O)O)cc3)cc(C#N)c2c1", "note": "[Example 45]", "IC50": 5}
{"smiles": "N#Cc1c(F)c(-c2ccc(C(=O)O)cc2)n2ccccc12", "note": "[Example 61, 4-(1-Cyano-2-fluoroindolizine-3-yl) benzoic acid]", "IC50": 68}
{"smiles": "N#Cc1cc(-c2ccc(C(=O)O)cc2)n2cccc(Cl)c12", "note": "[Example 3]", "IC50": 6}
{"smiles": "Cc1cccn2c(-c3ccc(C(=O)O)c(O)c3)cc(C#N)c12", "note": "[Example 19]", "IC50": 3}
{"smiles": "Cc1ccn2c(-c3ccc(C(=O)O)cc3)cc(C#N)c2c1", "note": "[Example 2]", "IC50": 4}
{"smiles": "Cc1ccn2c(-c3ccc(C(=O)O)c(O)c3)cc(C#N)c2c1Cl", "note": "[Example 50]", "IC50": 2}
{"smiles": "Cc1ccn2c(-c3ccc(C(=O)O)c(O)c3)cc(C#N)c2c1F", "note": "[Example 23]", "IC50": 3}
{"smiles": "N#Cc1cc(-c2ccc(C(=O)O)s2)n2ccccc12", "note": "[Example 28]", "IC50": 3}
{"smiles": "CN(C)c1ccn2c(-c3ccc(C(=O)O)c(O)c3)cc(C#N)c2c1", "note": "[Example 59]", "IC50": 10}
{"smiles": "N#Cc1cc(-c2ccc(C(=O)O)c(N)c2)n2ccccc12", "note": "[Example 30, 2-Amino-4-(1-cyanoindolizine-3-yl) benzoic acid]", "IC50": 8}
{"smiles": "Cc1ccn2c(-c3ccc(C(=O)O)cc3)cc(C#N)c2c1Cl", "note": "[Example 37]", "IC50": 4}
{"smiles": "Cc1ccc2c(C#N)cc(-c3ccc(C(=O)O)c(O)c3)n2c1", "note": "[Example 20]", "IC50": 5}
{"smiles": "Cc1cc(C)c2c(C#N)cc(-c3ccc(C(=O)O)c(O)c3)n2c1", "note": "[Example 21]", "IC50": 4}
{"smiles": "CC(C)(C)c1ccn2c(-c3ccc(C(=O)O)cc3)cc(C#N)c2c1", "note": "[Example 43]", "IC50": 2}
{"smiles": "CC(C)Oc1ccn2c(-c3ccc(C(=O)O)cc3)cc(C#N)c2c1C(F)(F)F", "note": "[Example 47, 4-(1-Cyano-7-isopropoxy-8-trifluoromethylindolizine-3-yl) benzoic acid]", "IC50": 2}
{"smiles": "CC(C)c1ccn2c(-c3ccc(C(=O)O)cc3)cc(C#N)c2c1", "note": "[Example 42]", "IC50": 4}
{"smiles": "N#Cc1cc(-c2ccc(C(=O)O)cc2)n2ccc(C(F)(F)F)cc12", "note": "[Example 15]", "IC50": 10}
{"smiles": "N#Cc1cc(-c2ccc(C(=O)O)cc2)n2ccc(Br)cc12", "note": "[Example 64]", "IC50": 8}
{"smiles": "N#Cc1cc(-c2ccc(C(=O)O)cc2)n2cc(F)ccc12", "note": "[Example 14]", "IC50": 18}
{"smiles": "N#Cc1cc(-c2ccc(C(=O)O)cc2)n2ccc3c(c12)CCCC3", "note": "[Example 9]", "IC50": 3}
{"smiles": "Cc1ccn2c(-c3ccc(C(=O)O)cc3)cc(C#N)c2c1F", "note": "[Example 7]", "IC50": 5}
{"smiles": "COc1cc2c(C#N)cc(-c3ccc(C(=O)O)c(O)c3)n2cc1C", "note": "[Example 60]", "IC50": 15}
{"smiles": "N#Cc1cc(-c2ccc(C(=O)O)c(O)c2)n2ccc(CF)cc12", "note": "[Example 63, 4-(1-Cyano-7-fluoromethylindolizine-3-yl)-2-hydroxybenzoic acid]", "IC50": 8}
{"smiles": "CCc1cccn2c(-c3ccc(C(=O)O)c(O)c3)cc(C#N)c12", "note": "[Example 24]", "IC50": 6}
{"smiles": "N#Cc1cc(-c2ccc(C(=O)O)c(O)c2)n2ccccc12", "note": "[Example 17, 4-(1-Cyanoindolizine-3-yl)-2-hydroxybenzoic acid]", "IC50": 4}
{"smiles": "N#Cc1cc(-c2ccc(C(=O)O)cc2)n2ccccc12", "note": "[Example 1, 4-(1-Cyanoindolizine-3-yl) benzoic acid]", "IC50": 7}
{"smiles": "Cc1ccn2c(-c3cnc(C(=O)O)c(O)c3)cc(C#N)c2c1", "note": "[Example 66]", "IC50": 2}
{"smiles": "N#Cc1cc(-c2ccc(C(=O)O)c(O)c2)n2cccc(F)c12", "note": "[Example 25]", "IC50": 5}
{"smiles": "Cc1ccn2c(-c3cnc(C(=O)O)c(O)c3)cc(C#N)c2c1F", "note": "[Example 67]", "IC50": 2}
{"smiles": "Cc1ccn2c(-c3ccc(C(=O)O)c(O)c3)cc(C#N)c2c1C", "note": "[Example 51]", "IC50": 5}
{"smiles": "Cc1cc(C)c2c(C#N)cc(-c3ccc(C(=O)O)cc3)n2c1", "note": "[Example 6]", "IC50": 9}
{"smiles": "N#Cc1cc(-c2ccc(C(=O)O)c(O)c2)n2ccc(C(F)(F)F)cc12", "note": "[Example 27]", "IC50": 5}
{"smiles": "CCc1cccn2c(-c3ccc(C(=O)O)cc3)cc(C#N)c12", "note": "[Example 11]", "IC50": 4}
{"smiles": "N#Cc1c(F)c(-c2ccc(C(=O)O)c(O)c2)n2ccccc12", "note": "[Example 62, 4-(1-Cyano-2-fluoroindolizine-3-yl)-2-hydroxybenzoic acid]", "IC50": 4}
{"smiles": "Cc1c(Cl)ccn2c(-c3ccc(C(=O)O)c(O)c3)cc(C#N)c12", "note": "[Example 52]", "IC50": 2}
{"smiles": "COc1cc2c(C#N)cc(-c3ccc(C(=O)O)cc3)n2cc1C", "note": "[Example 46]", "IC50": 8}
{"smiles": "Cc1cc2c(C#N)cc(-c3ccc(C(=O)O)cc3)n2cc1Cl", "note": "[Example 36]", "IC50": 8}
{"smiles": "Cc1ccn2c(-c3ccc(C(=O)O)c(F)c3)cc(C#N)c2c1F", "note": "[Example 34]", "IC50": 10}
{"smiles": "N#Cc1cc(-c2cnc(C(=O)O)c(O)c2)n2ccccc12", "note": "[Example 65]", "IC50": 8}
{"smiles": "CC(C)(O)c1ccn2c(-c3ccc(C(=O)O)cc3)cc(C#N)c2c1", "note": "[Example 44]", "IC50": 3}
{"smiles": "CC(C)(C)c1ccn2c(-c3ccc(C(=O)O)c(O)c3)cc(C#N)c2c1", "note": "[Example 56]", "IC50": 2}
{"smiles": "N#Cc1cc(-c2ccc(C(=O)O)c(F)c2)n2ccccc12", "note": "[Example 33]", "IC50": 30}
{"smiles": "COc1cccn2c(-c3ccc(C(=O)O)cc3)cc(C#N)c12", "note": "[Example 41]", "IC50": 5}
{"smiles": "N#Cc1cc(-c2ccc(C(=O)O)cc2)n2cccc(F)c12", "note": "[Example 13]", "IC50": 9}
{"smiles": "N#Cc1cc(-c2ccc(C(=O)O)c(O)c2)n2ccc(-c3cnco3)cc12", "note": "[Example 57]", "IC50": 4}
{"smiles": "COc1ccn2c(-c3ccc(C(=O)O)c(O)c3)cc(C#N)c2c1", "note": "[Example 58]", "IC50": 2}
{"smiles": "Cc1cc2c(C#N)cc(-c3ccc(C(=O)O)c(O)c3)n2cc1Cl", "note": "[Example 49]", "IC50": 2}
{"smiles": "N#Cc1ccn2c(-c3ccc(C(=O)O)c(O)c3)cc(C#N)c2c1", "note": "[Example 54]", "IC50": 3}
{"smiles": "CC(=O)c1ccn2c(-c3ccc(C(=O)O)c(O)c3)cc(C#N)c2c1", "note": "[Example 53]", "IC50": 3}
{"smiles": "N#Cc1cc(-c2ccc(C(=O)O)nc2)n2ccccc12", "note": "[Example 70]", "IC50": 18}
{"smiles": "N#Cc1cc(-c2ccc(C(=O)O)c(O)c2)n2cc(F)c(C(F)(F)F)cc12", "note": "[Example 48]", "IC50": 6}
{"smiles": "Cc1c(Cl)ccn2c(-c3ccc(C(=O)O)cc3)cc(C#N)c12", "note": "[Example 39]", "IC50": 8}
{"smiles": "Cc1cccn2c(-c3ccc(C(=O)O)cc3)cc(C#N)c12", "note": "[Example 4]", "IC50": 7}
{"smiles": "Cc1nc(-c2cc(C#N)c3ccccn23)sc1C(=O)O", "note": "[Example 71]", "IC50": 20}
{"smiles": "Cc1ccn2c(-c3ccc(C(=O)O)cc3)cc(C#N)c2c1C", "note": "[Example 38]", "IC50": 5}
{"smiles": "CCc1ccc2c(C#N)cc(-c3ccc(C(=O)O)cc3)n2c1", "note": "[Example 12]", "IC50": 11}
{"smiles": "CCc1ccn2c(-c3ccc(C(=O)O)cc3)cc(C#N)c2c1", "note": "[Example 10]", "IC50": 8}
{"system": "male CD (SD) IGS rats", "assay": "Serum hypouricemic effect", "type": "in vivo", "settings": "Rattus norvegicus; 1 mg/kg oral gavage, overnight fasted male rats, serum at 2 hours after administration; read-out: percent decrease in uric acid", "experimental": "Test compounds at 1 mg/kg suspended in 0.5% methylcellulose solution were administered by oral gavage administration to overnight fasted male CD (SD) IGS rats (5-week-old, Charls River Japan). At 2 hours after administration, blood was collected under ether anesthesia from abdominal aorta, and serum was separated according to general method. Serum uric acid values were determined by use of uric acid measurement kit (Uric acid C-Test Wako: Wako pure chemical), and percent decrease in uric acid was calculated according to the formula described below. As a result, it was shown that compounds of Examples 2, 7, 10, 22, 23, 25, 37, 49, 50 and 58 have over 60% percent decrease in uric acid.\nPercent decrease in uric acid (%)=(Serum uric acid values in control animals−Serum uric acid values in animals administered test compounds)×100/Serum uric acid values in control animals", "units": {"inhibition in vivo at 1 mg/kg": "%"}}
{"smiles": "Cc1ccn2c(-c3ccc(C(=O)O)cc3)cc(C#N)c2c1", "note": "[Example 2]", "inhibition in vivo at 1 mg/kg": "> 60"}
{"smiles": "Cc1ccn2c(-c3ccc(C(=O)O)c(O)c3)cc(C#N)c2c1Cl", "note": "[Example 50]", "inhibition in vivo at 1 mg/kg": "> 60"}
{"smiles": "Cc1ccn2c(-c3ccc(C(=O)O)c(O)c3)cc(C#N)c2c1F", "note": "[Example 23]", "inhibition in vivo at 1 mg/kg": "> 60"}
{"smiles": "Cc1ccn2c(-c3ccc(C(=O)O)cc3)cc(C#N)c2c1Cl", "note": "[Example 37]", "inhibition in vivo at 1 mg/kg": "> 60"}
{"smiles": "Cc1ccn2c(-c3ccc(C(=O)O)cc3)cc(C#N)c2c1F", "note": "[Example 7]", "inhibition in vivo at 1 mg/kg": "> 60"}
{"smiles": "N#Cc1cc(-c2ccc(C(=O)O)c(O)c2)n2cccc(F)c12", "note": "[Example 25]", "inhibition in vivo at 1 mg/kg": "> 60"}
{"smiles": "COc1ccn2c(-c3ccc(C(=O)O)c(O)c3)cc(C#N)c2c1", "note": "[Example 58]", "inhibition in vivo at 1 mg/kg": "> 60"}
{"smiles": "Cc1cc2c(C#N)cc(-c3ccc(C(=O)O)c(O)c3)n2cc1Cl", "note": "[Example 49]", "inhibition in vivo at 1 mg/kg": "> 60"}
{"smiles": "CCc1ccn2c(-c3ccc(C(=O)O)cc3)cc(C#N)c2c1", "note": "[Example 10]", "inhibition in vivo at 1 mg/kg": "> 60"}
